Laboratory results taken from patent publication EP4335452A1, “PHARMACEUTICAL COMPOSITION FOR ENHANCING ANTICANCER EFFECT OF ANTICANCER DRUG” (L-Base Co., Ltd., priority 2021, dated 2024).
Ends that are not written are not given here.

Columns and labels:
[1] = tested on: lung cancer cell line H1975; experiment: MTT assay, cell viability, lung cancer cell line H1975; type: cell-based; settings: 48 hours
[2] = tested on: breast cancer cell line HCC1937; experiment: MTT assay, cell viability, breast cancer cell line HCC1937; type: cell-based; settings: Olaparib 2.5 µM alone, 24 hours, FIG. 4B
H1975/OR = experiment: MTT assay, cell viability, H1975/OR; type: cell-based; settings: Osimertinib 2.5 µM alone, 68 hours, FIG. 1G
Experimental: (§1) Specifically, cells were seeded at 2 × 10^3/100 µl per well on a 96-well plate, and after culturing for 24 hours, the compound according to the present invention was administered; 4 hours later, anticancer drugs were treated to each cancer cell. The treatment concentration and treatment time of the compound and anticancer drug are specifically described in the embodiment. After completing the treatment of the compound and anticancer drug, CellTiter-96® reagent (Promega Co., USA) was reacted at 5% CO2, 37°C after adding 10 µl per well. After 3 hours, absorbance was measured at 490 nm using a spectrophotometer (SPECTROstar^Nano, BMG).

[3] = tested on: H820 lung cancer cell line; experiment: Heterotransplant lung cancer animal model (H820), tumor growth; type: in vivo; settings: H820 nude mice; Osimertinib single administration, 2.5 mpk orally daily; FIG. 6A
Experimental: The test substances were administered intravenously and orally 7 times at 2-day intervals.
Nude mice transplanted with H820 lung cancer cell line, an animal model of lung cancer described in the "Experimental Materials and Methods," was treated 7 times at a two-day interval for 14 days with 3-PhPh-[…] at a dose of 10 mpk, and Osimertinib was orally administered daily at 2.5 mpk. Then, the growth of the tumor was compared.

H1975 cell line = experiment: Heterotransplant lung cancer resistance animal model (H1975), tumor growth after Osimertinib resistance; type: in vivo, Balb/C nude mice
Experimental: H1975 cells were mixed with matrigel in a 1:1 ratio at a concentration of 5 × 10^6 cells/mouse, and each was subcutaneously inoculated at 200µl into the flank of the mouse once. After the inoculation, it was confirmed that the volume of the formed tumor reached 70~130 mm^3, and then random grouping was carried out. After the grouping, Osimertinib was administered orally every day, and after the growth of the tumor was inhibited, the point of re-growth was identified and the co-administration with the test substance was started. The test substances were administered intravenously 7 times at 2-day intervals.
After inoculating the H1975 cell line in 4-week-old female Balb/C nude mice, the presence and growth of the tumor were observed and the short and long axes of the tumor were measured to calculate the volume. When the volume of the tumor reached 70-120 mm^3, the groups were randomly separated and PBS, the negative control group, and Osimertinib at 5 mpk were orally administered daily.
The first day of administration was set as day 1, and the volume of the tumor was measured twice a week.

[4] = tested on: lung cancer cell line H1975; experiment: MTT assay, cell viability, lung cancer cell line H1975; type: cell-based; settings: Ac-AQTGTGKT 10 µM alone, 48 hours, FIG. 1C
Experimental: as §1

Compound: Nc1nc2[nH]cc(CCc3ccc(C(=O)N[C@@H](CCC(=O)O)C(=O)O)cc3)c2c(=O)[nH]1 [Alimta, Alimta (Pemetrexed)]
- cell viability decreased compared to the control group ([1]; Alimta 0.2 µM alone, FIG. 1E): about 6%

Compound: O=C(c1cc(Cc2n[nH]c(=O)c3ccccc23)ccc1F)N1CCN(C(=O)C2CC2)CC1 [Olaparib]
- decrease in cell viability compared to the control group [2]: no decrease in cell viability

Compound: C=CC(=O)Nc1cc(Nc2nccc(-c3cn(C)c4ccccc34)n2)c(OC)cc1N(C)CCN(C)C [Osimertinib]
- cell viability decreased compared to the control group ([1]; Osimertinib 1 µM alone, FIG. 1B): about 5%
- cell viability decreased compared to the control group (H1975/OR): about 7%
- tumor growth reduced compared to the control group (PBS administered group) [3]: 46%
- size of the tumor on the day of termination of administration (average) (H1975 cell line; H1975, after Osimertinib resistance, Osimertinib 5 mpk orally daily + PBS intravenously at a two-day interval, FIG. 6B): 692.6 mm^3
- tumor viability rate (tumor size on the 28th day versus the last measured tumor size) (H1975 cell line; H1975 Balb/C nude mice, Osimertinib 5 mpk orally daily, regrowth from the 24th day, judged as acquired resistance): over 50%

Compound: Ac-AQTGTGKT
- cell viability decreased compared to the control group [4]: about 14%
